Test results reported in the Kinase Knowledgebase extract (Sharma et al. 2016).
Values joined by “and” are separate entries in the source; they are usually repeats but may differ in a detail not shown here. Equal values may be shown once.

These molecules were tested against PIK3CD (Human) (UniProt O00329) (assay: Enzyme Assay).
Sequence of PIK3CD (Human) (O00329 whole entry, looked up): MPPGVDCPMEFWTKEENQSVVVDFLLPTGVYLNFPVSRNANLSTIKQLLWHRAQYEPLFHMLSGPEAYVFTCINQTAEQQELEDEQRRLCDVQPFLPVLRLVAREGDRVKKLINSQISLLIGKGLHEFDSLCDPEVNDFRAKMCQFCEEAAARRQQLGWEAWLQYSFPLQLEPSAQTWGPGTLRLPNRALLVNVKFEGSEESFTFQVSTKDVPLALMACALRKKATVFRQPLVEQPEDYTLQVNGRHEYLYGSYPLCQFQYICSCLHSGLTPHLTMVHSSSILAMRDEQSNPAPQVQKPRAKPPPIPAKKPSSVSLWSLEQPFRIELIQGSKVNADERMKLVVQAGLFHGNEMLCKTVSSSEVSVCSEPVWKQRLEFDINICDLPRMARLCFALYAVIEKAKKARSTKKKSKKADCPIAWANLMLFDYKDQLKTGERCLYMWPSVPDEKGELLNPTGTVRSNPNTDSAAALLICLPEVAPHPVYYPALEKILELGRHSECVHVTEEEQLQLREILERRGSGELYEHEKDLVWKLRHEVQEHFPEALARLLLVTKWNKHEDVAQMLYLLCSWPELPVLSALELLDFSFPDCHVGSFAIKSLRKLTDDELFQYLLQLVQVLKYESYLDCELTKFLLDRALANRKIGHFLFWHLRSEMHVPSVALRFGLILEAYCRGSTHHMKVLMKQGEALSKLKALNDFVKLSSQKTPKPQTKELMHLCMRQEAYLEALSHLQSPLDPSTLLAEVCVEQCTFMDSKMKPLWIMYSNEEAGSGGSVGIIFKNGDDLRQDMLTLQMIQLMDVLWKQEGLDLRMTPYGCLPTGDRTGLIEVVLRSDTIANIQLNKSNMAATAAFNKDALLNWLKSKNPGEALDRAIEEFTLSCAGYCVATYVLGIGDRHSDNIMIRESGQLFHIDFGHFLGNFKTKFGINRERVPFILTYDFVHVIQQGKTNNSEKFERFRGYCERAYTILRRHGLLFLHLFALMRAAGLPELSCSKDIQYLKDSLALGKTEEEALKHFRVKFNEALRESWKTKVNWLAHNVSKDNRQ

| SMILES | IC50 |
| --- | --- |
| CCn1ncc(-c2nc3c(O[C@H]4CCN(C(=O)c5cc(C(C)(C)C)nn5C)C4)ncnc3n2C)c1C | 150 nM |
| CCN(C)C(=O)N1CC[C@H](Oc2ncnc3c2nc(-c2cnc(C)nc2)n3CC)C1 | 10 nM |
| Cc1ncc(-c2nc3c(O[C@H]4CCN(C(=O)OC(C)(C)C)C4)ncnc3n2C)n1C | 28 nM |
| CCn1ncc(-c2nc3c(O[C@H]4CCN(C(=O)Oc5ccc6ccccc6c5)C4)ncnc3n2C)c1C | 110 nM |
| CCC(=O)N1CC[C@H](Oc2ncnc3c2nc(-c2cnn(CC)c2C)n3CC)C1 | 0.6 nM |
| CCn1c(-c2cnc(C)nc2)nc2c(O[C@H]3CCN(C(=O)N4CCC(C)(C)C4)C3)ncnc21 | 3.8 nM |
| CCn1c(-c2cnc(C)nc2)nc2c(OC3CCC(NC(=O)C4CCOCC4)C3)ncnc21 (stereo unspecified) | 170 nM |
| CCn1c(-c2cnc(OC)c(C#N)c2)nc2c(O[C@H]3CCN(C(=O)C4CC4)C3)ncnc21 | 2.4 nM |
| CCn1ncc(-c2nc3c(O[C@H]4CCN(C(=O)c5cc(C)n(C)n5)C4)ncnc3n2C)c1C | 150 nM |
| CCC(=O)N1CC[C@H](Oc2ncnc3c2nc(-c2cnn4c2CCCC4)n3C)C1 | 2.4 nM |
| CCn1ncc(C(=O)N2CC[C@H](Oc3ncnc4c3nc(-c3cnn(CC)c3C)n4C)C2)c1C | 29 nM |
| CCn1c(N(C)CCO)nc2c(O[C@H]3CCN(C(=O)OC(C)(C)C)C3)ncnc21 | 830 nM |
| CCC(=O)N1CC[C@H](Oc2ncnc3c2nc(-c2ccc(Cl)nc2)n3C)C1 | 16 nM |
| CCC(=O)N1CC[C@H](Oc2ncnc3c2nc(-c2cnc(OC)c(NS(C)(=O)=O)c2)n3C)C1 | 2 nM |
| CCC(=O)N1CC[C@H](Oc2ncnc3c2nc(-c2cnc4[nH]ccc4c2)n3C)C1 | 19 nM |
| CCn1ncc(-c2nc3c(S[C@H]4CCN(C(=O)c5coc(C)n5)C4)ncnc3n2C)c1C | 25 nM |
| CCn1c(-c2ccc(C(F)(F)F)cc2)nc2c(O[C@H]3CCN(C(=O)C4CC4)C3)ncnc21 | 3.4 nM |
| CCC(=O)N1CC[C@H](Oc2ncnc3c2nc(-c2ccc4cc[nH]c4c2)n3C)C1 | 120 nM |
| CCn1ncc(-c2nc3c(O[C@H]4CCN(C(=O)c5nnsc5C)C4)ncnc3n2C)c1C | 5.3 nM |
| CCC(=O)N1CC[C@H](Oc2ncnc3c2nc(Oc2ccc(OC)c(F)c2)n3C)C1 | 120 nM |
| CCn1ncc(-c2nc3c(O[C@H]4CCN(C(=O)C5CCOCC5)C4)ncnc3n2C)c1C | 4.3 nM |
| CCn1ncc(-c2nc3c(O[C@H]4CCN(C(=O)C5CCCO5)C4)ncnc3n2C)c1C (stereo partly specified) | 12 nM |

| SMILES | IC50 |
| --- | --- |
| CCn1c(-c2cnc(C)nc2)nc2c(O[C@@H]3CCN(C(=O)N4CC(F)(F)C4)C3)ncnc21 | 5.9 nM |
| CCn1ncc(-c2nc3c(O[C@H]4CCN(C(=O)c5cccc6ccccc56)C4)ncnc3n2C)c1C | 67 nM |
| CCC(=O)N1CC[C@H](Oc2ncnc3c2nc(-c2ccc(OC)nc2)n3C)C1 | 10 nM |
| CCn1ncc(-c2nc3c(O[C@H]4CCN(C(=O)C(C)(C)C)C4)ncnc3n2C)c1C | 22 nM |
| Cn1c(-c2ccc(N3CCCC3)nc2)nc2c(O[C@H]3CCN(C(=O)OC(C)(C)C)C3)ncnc21 | 590 nM |
| CCn1c(-c2cnc(C)nc2)nc2c(O[C@H]3C[C@@H](NC(=O)OC(C)(C)C)C3)ncnc21 | 96 nM and 220 nM |
| CCn1ncc(-c2nc3c(O[C@H]4CCN(C(=O)c5cc6ncccc6[nH]5)C4)ncnc3n2C)c1C | 1900 nM |
| CCn1c(-c2cnc(C)nc2)nc2c(O[C@H]3CCN(C(=O)[C@@H]4CCC[C@H]4N)C3)ncnc21 | 39 nM |
| CCOC(=O)N1CC[C@H](Sc2ncnc3c2nc(-c2cnn(CC)c2C)n3C)C1 | 37 nM |
| CCn1c(-c2cnc(OC)c(NS(C)(=O)=O)c2)nc2c(O[C@H]3CCN(C(=O)C4CC4)C3)ncnc21 | < 1 nM |
| CCn1ncc(-c2nc3c(O[C@H]4CCN(CC5CCCCC5)C4)ncnc3n2C)c1C | 300 nM |
| CCn1c(-c2cnc(C)nc2)nc2c(O[C@H]3CCN(c4cccnc4)C3)ncnc21 | 10 nM |
| CCn1ncc(-c2nc3c(O[C@H]4CCN(C(=O)OC(C)(C)C)C4)ncnc3n2C)c1C | 4.3 nM |
| CCn1ncc(-c2nc3c(O[C@H]4CCN(S(=O)(=O)C(C)C)C4)ncnc3n2C)c1C | 530 nM |
| CCn1ncc(-c2nc3c(O[C@H]4CCN(C(=O)c5c[nH]nn5)C4)ncnc3n2C)c1C | 12 nM |
| CCn1c(N2CCC(c3ccccc3)CC2)nc2c(O[C@H]3CCN(C(=O)OC(C)(C)C)C3)ncnc21 | 120 nM |
| CCn1c(-c2cnc(C)nc2)nc2c(O[C@H]3CCN(C(=O)N4CC5CC5C4)C3)ncnc21 (stereo partly specified) | 5.7 nM |
| CCn1c(-c2cnc(C)nc2)nc2c(O[C@H]3CCN(C(=O)N4C5CCC4CC5)C3)ncnc21 | 10 nM |
| CCn1c(-c2cnc(C)nc2)nc2c(O[C@H]3CCCN(c4ccccn4)C3)ncnc21 | 73 nM |
| CCn1ncc(-c2nc3c(O[C@H]4CCN(C(=O)c5c(C)nn(C)c5C)C4)ncnc3n2C)c1C | 74 nM |
| CC(=O)Nc1ccc(-c2nc3c(O[C@H]4CCN(C(=O)OC(C)(C)C)C4)ncnc3n2C)cc1 | 140 nM |
| CCn1ncc(-c2nc3c(O[C@H]4CCN(S(=O)(=O)c5cn(C)cn5)C4)ncnc3n2C)c1C | 1500 nM |

| SMILES | IC50 |
| --- | --- |
| CCn1ncc(-c2nc3c(O[C@H]4CCN(C(=O)C5CC(=O)N(C(C)C)C5)C4)ncnc3n2C)c1C (stereo partly specified) | 10 nM |
| CCn1c(-c2cnc(OC)c(C)c2)nc2c(O[C@H]3CCN(C(=O)C4CC4)C3)ncnc21 | < 1 nM |
| CCn1ncc(-c2nc3c(O[C@H]4CCN(C(=O)c5ncoc5C)C4)ncnc3n2C)c1C | 7.2 nM |
| CCC(=O)N1CC[C@H](Oc2ncnc3c2nc(-c2cnc(OC)c(C(F)(F)F)c2)n3C)C1 | 7.8 nM |
| CCn1ncc(-c2nc3c(O[C@H]4CCN(C(=O)c5cnoc5C5CC5)C4)ncnc3n2C)c1C | 79 nM |
| CCn1ncc(-c2nc3c(O[C@H]4CCN(C(=O)C5CC(=O)N(C)C5)C4)ncnc3n2C)c1C (stereo partly specified) | 30 nM |
| CCn1ncc(-c2nc3c(O[C@H]4CCN(C(=O)c5cc(C)n(C)c5C)C4)ncnc3n2C)c1C | 20 nM |
| CCC(=O)N1CC[C@H](Oc2ncnc3c2nc(Oc2cc(F)cc(OC)c2)n3C)C1 | 110 nM |
| CCn1ncc(-c2nc3c(O[C@H]4CCN(C(=O)c5cnn(C)c5)C4)ncnc3n2C)c1C | 14 nM |
| CCC(=O)N1CC[C@H](Oc2ncnc3c2nc(C2CC2)n3C)C1 | 580 nM |
| CCC(=O)N1CC[C@H](Oc2ncnc3c2nc(-c2cnc(OC)c(C)c2)n3CC)C1 | 0.5 nM |
| CCn1c(-c2cnc(C)nc2)nc2c(OC3CCN(C(=O)N(C)c4ccccc4)CC3)ncnc21 | 46 nM |
| CCn1ncc(-c2nc3c(O[C@H]4CCN(C(=O)c5nc(C)oc5C)C4)ncnc3n2C)c1C | 7.2 nM |
| CCn1ncc(-c2nc3c(O[C@H]4CCN(C(=O)c5cc6n(n5)CCC6)C4)ncnc3n2C)c1C | 76 nM |
| CCn1ncc(-c2nc3c(O[C@H]4CCN(C(=O)OCC(C)(C)C)C4)ncnc3n2C)c1C | 28 nM |
| CCc1oncc1C(=O)N1CC[C@H](Oc2ncnc3c2nc(-c2cnn(CC)c2C)n3C)C1 | 27 nM |
| CCn1c(-c2cnc(C)nc2)nc2c(O[C@H]3CCN(C(=O)CC(C)(C)N)C3)ncnc21 | 9.3 nM |
| CCn1ncc(-c2nc3c(O[C@H]4CCN(c5ncccn5)C4)ncnc3n2C)c1C | 21 nM |
| CCn1ncc(-c2nc3c(OC4CCN(C(=O)c5ccccc5)C4)ncnc3n2C)c1C (stereo unspecified) | 68 nM |
| CCn1c(-c2cnc(C)nc2)nc2c(O[C@H]3CCN(C(=O)OC(C)(C)C)C3)ncnc21 | 8.3 nM |
| CN(C)c1ccc(-c2nc3c(O[C@H]4CCN(C(=O)OC(C)(C)C)C4)ncnc3n2C)cn1 | 65 nM |
| CCn1ncc(-c2nc3c(S[C@H]4CCN(C(=O)c5ccn(C)n5)C4)ncnc3n2C)c1C | 19 nM |
